Assay results as given in patent US20260242419A1, “A CYCLIC PEPTIDE FOR TRAPPING INTERLEUKIN-1 BETA” (Merck Sharp & Dohme LLC, priority 2023, published 2026).
Non-standard residues stand in square brackets, D forms with d. Residues, ends and D or L forms follow the SMILES beside them. dPro(4R-(4-pyridylmethyl)) = O=C(O)[C@H]1C[C@@H](Cc2ccncc2)CN1; dPro(3S-(4-Br-benzyl)) = O=C(O)[C@@H]1NCC[C@@H]1Cc1ccc(Br)cc1; Trp(βS-Me,4-F) = C[C@@H](c1c[nH]c2cccc(F)c12)[C@H](N)C(=O)O; Bip(4'-COOH) = N[C@@H](Cc1ccc(-c2ccc(C(=O)O)cc2)cc1)C(=O)O; Ala(1-bicyclo(1.1.1)pentyl) = N[C@@H](CC12CC(C1)C2)C(=O)O; 1Nal(3S-Me) = C[C@@H](c1cccc2ccccc12)[C@H](N)C(=O)O; Ala(pyrimidin-5-yl) = N[C@@H](Cc1cncnc1)C(=O)O; Phe(4-COOH) = N[C@@H](Cc1ccc(C(=O)O)cc1)C(=O)O; Pro(cis-4-F) = O=C(O)[C@@H]1C[C@H](F)CN1; cisHyp = O=C(O)[C@@H]1C[C@H](O)CN1; d(αMeD) = C[C@@](N)(CC(=O)O)C(=O)O; 4Pal = N[C@@H](Cc1ccncc1)C(=O)O; Dab = NCC[C@H](N)C(=O)O; Aib = CC(C)(N)C(=O)O

biological target: T1, IL-1β (Homo sapiens, UniProt P01584); assay: IL-6 assay in MRC5 cells: inhibition of IL-1β induced IL-6 secretion (AlphaLISA); format: cell-based; details: inhibition of IL-1β induced IL-6 secretion in MRC5 cells; read-out: MRC5 IC50
T1 construct: purchased BioLegend 579404
T1 sequence (P01584 117-269): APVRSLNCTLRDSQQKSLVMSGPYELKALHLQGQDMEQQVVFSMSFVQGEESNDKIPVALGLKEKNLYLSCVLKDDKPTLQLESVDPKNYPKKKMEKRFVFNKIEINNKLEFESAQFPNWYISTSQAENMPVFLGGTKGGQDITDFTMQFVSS
Procedure, shortened: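 Compound was pre-incubated 1 h at ambient temperature with recombinant human IL-1β at 2λ EC80 before adding human lung fibroblast MRC5 cells (3000/well) in EMEM with 0.025% BSA. After overnight culture at 37 °C, 5% CO2, secreted IL-6 in conditioned medium was measured by AlphaLISA; IC50 from 4-parameter logistic fits.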

| IC50 | SMILES |
| --- | --- |
| 0.031 nM | C[C@@H](c1c[nH]c2cccc(F)c12)[C@@H]1NC(=O)[C@@H]2C[C@H](F)CN2C(=O)CNC(=O)[C@H](Cc2ccc(C(=O)O)cc2)NC(=O)[C@H](Cc2ccncc2)NC(=O)[C@H](Cc2ccc(-c3ccc(C(=O)O)cc3)cc2)NC(=O)[C@H]2[C@@H](Cc3ccc(Br)cc3)CCN2C(=O)CNC(=O)[C@H](CCCCN)NC(=O)[C@H](CCC(N)=O)NC(=O)[C@H](Cc2cncnc2)NC(=O)C(C)(C)NC(=O)[C@H](Cc2c[nH]c3ccccc23)NC(=O)[C@H](CCC(=O)O)NC(=O)C(C)(C)NC1=O [Example 152] (cyclo([Bip(4'-COOH)][4Pal][Phe(4-COOH)]G[Pro(cis-4-F)][Trp(βS-Me,4-F)][Aib]EW[Aib][Ala(pyrimidin-5-yl)]QKG[dPro(3S-(4-Br-benzyl))])) |
| 0.019 nM | C[C@@H](c1cccc2ccccc12)[C@@H]1NC(=O)[C@@H]2C[C@H](F)CN2C(=O)CNC(=O)[C@H](Cc2ccc(C(=O)O)cc2)NC(=O)[C@H](Cc2ccncc2)NC(=O)[C@H](Cc2ccc(-c3ccc(C(=O)O)cc3)cc2)NC(=O)[C@H]2[C@@H](Cc3ccc(Br)cc3)CCN2C(=O)CNC(=O)[C@H](CCN)NC(=O)[C@H](CCC(N)=O)NC(=O)[C@H](Cc2cncnc2)NC(=O)C(C)(C)NC(=O)[C@H](Cc2c[nH]c3ccccc23)NC(=O)[C@H](CCC(=O)O)NC(=O)C(C)(C)NC1=O [Example 153] (cyclo([Bip(4'-COOH)][4Pal][Phe(4-COOH)]G[Pro(cis-4-F)][1Nal(3S-Me)][Aib]EW[Aib][Ala(pyrimidin-5-yl)]Q[Dab]G[dPro(3S-(4-Br-benzyl))])) |
| 0.011 nM | C[C@@H](c1c[nH]c2cccc(F)c12)[C@@H]1NC(=O)[C@@H]2C[C@H](F)CN2C(=O)CNC(=O)[C@H](Cc2ccc(C(=O)O)cc2)NC(=O)[C@H](Cc2ccncc2)NC(=O)[C@H](Cc2ccc(-c3ccc(C(=O)O)cc3)cc2)NC(=O)[C@H]2C[C@@H](Cc3ccncc3)CN2C(=O)CNC(=O)[C@H](CCN)NC(=O)[C@H](CCC(N)=O)NC(=O)[C@H](Cc2cncnc2)NC(=O)[C@@](C)(CC(=O)O)NC(=O)[C@H](Cc2c[nH]c3ccccc23)NC(=O)[C@H](CO)NC(=O)C(C)(C)NC1=O [Example 154] (cyclo([Bip(4'-COOH)][4Pal][Phe(4-COOH)]G[Pro(cis-4-F)][Trp(βS-Me,4-F)][Aib]SW[d(αMeD)][Ala(pyrimidin-5-yl)]Q[Dab]G[dPro(4R-(4-pyridylmethyl))])) |
| 0.011 nM | C[C@@H](c1c[nH]c2cccc(F)c12)[C@@H]1NC(=O)[C@@H]2C[C@H](F)CN2C(=O)CNC(=O)[C@H](Cc2ccc(C(=O)O)cc2)NC(=O)[C@H](CC23CC(C2)C3)NC(=O)[C@H](Cc2ccc(-c3ccc(C(=O)O)cc3)cc2)NC(=O)[C@H]2C[C@@H](Cc3ccncc3)CN2C(=O)CNC(=O)[C@H](CCN)NC(=O)[C@H](CCC(N)=O)NC(=O)[C@H](Cc2cncnc2)NC(=O)[C@@](C)(CC(=O)O)NC(=O)[C@H](Cc2c[nH]c3ccccc23)NC(=O)[C@H](CO)NC(=O)C(C)(C)NC1=O [Example 155] (cyclo([Bip(4'-COOH)][Ala(1-bicyclo(1.1.1)pentyl)][Phe(4-COOH)]G[Pro(cis-4-F)][Trp(βS-Me,4-F)][Aib]SW[d(αMeD)][Ala(pyrimidin-5-yl)]Q[Dab]G[dPro(4R-(4-pyridylmethyl))])) |
| 0.015 nM | C[C@@H](c1c[nH]c2cccc(F)c12)[C@@H]1NC(=O)[C@@H]2C[C@H](F)CN2C(=O)CNC(=O)[C@H](Cc2ccc(C(=O)O)cc2)NC(=O)[C@H](Cc2ccncc2)NC(=O)[C@H](Cc2ccc(-c3ccc(C(=O)O)cc3)cc2)NC(=O)[C@H]2C[C@@H](Cc3ccncc3)CN2C(=O)CNC(=O)[C@H](CO)NC(=O)[C@H](CCC(N)=O)NC(=O)[C@H](Cc2cncnc2)NC(=O)[C@@](C)(CC(=O)O)NC(=O)[C@H](Cc2c[nH]c3ccccc23)NC(=O)[C@H](CO)NC(=O)C(C)(C)NC1=O [Example 156] (cyclo([Bip(4'-COOH)][4Pal][Phe(4-COOH)]G[Pro(cis-4-F)][Trp(βS-Me,4-F)][Aib]SW[d(αMeD)][Ala(pyrimidin-5-yl)]QSG[dPro(4R-(4-pyridylmethyl))])) |
| 0.038 nM | C[C@@H](c1c[nH]c2cccc(F)c12)[C@@H]1NC(=O)[C@@H]2C[C@H](O)CN2C(=O)CNC(=O)[C@H](Cc2ccc(C(=O)O)cc2)NC(=O)[C@H](CC23CC(C2)C3)NC(=O)[C@H](Cc2ccc(-c3ccc(C(=O)O)cc3)cc2)NC(=O)[C@H]2C[C@@H](Cc3ccncc3)CN2C(=O)CNC(=O)[C@H](CO)NC(=O)[C@H](CCC(N)=O)NC(=O)[C@H](Cc2cncnc2)NC(=O)[C@@](C)(CC(=O)O)NC(=O)[C@H](Cc2c[nH]c3ccccc23)NC(=O)[C@H](CO)NC(=O)C(C)(C)NC1=O [Example 157] (cyclo([Bip(4'-COOH)][Ala(1-bicyclo(1.1.1)pentyl)][Phe(4-COOH)]G[cisHyp][Trp(βS-Me,4-F)][Aib]SW[d(αMeD)][Ala(pyrimidin-5-yl)]QSG[dPro(4R-(4-pyridylmethyl))])) |
| 0.013 nM | C[C@@H](c1c[nH]c2cccc(F)c12)[C@@H]1NC(=O)[C@@H]2C[C@H](F)CN2C(=O)CNC(=O)[C@H](Cc2ccc(C(=O)O)cc2)NC(=O)[C@H](CC23CC(C2)C3)NC(=O)[C@H](Cc2ccc(-c3ccc(C(=O)O)cc3)cc2)NC(=O)[C@H]2C[C@@H](Cc3ccncc3)CN2C(=O)CNC(=O)[C@H](CO)NC(=O)[C@H](CCC(N)=O)NC(=O)[C@H](Cc2cncnc2)NC(=O)[C@@](C)(CC(=O)O)NC(=O)[C@H](Cc2c[nH]c3ccccc23)NC(=O)[C@H](CO)NC(=O)C(C)(C)NC1=O [Example 158] (cyclo([Bip(4'-COOH)][Ala(1-bicyclo(1.1.1)pentyl)][Phe(4-COOH)]G[Pro(cis-4-F)][Trp(βS-Me,4-F)][Aib]SW[d(αMeD)][Ala(pyrimidin-5-yl)]QSG[dPro(4R-(4-pyridylmethyl))])) |
| 0.013 nM | C[C@@H](c1c[nH]c2cccc(F)c12)[C@@H]1NC(=O)[C@@H]2C[C@H](O)CN2C(=O)CNC(=O)[C@H](Cc2ccc(C(=O)O)cc2)NC(=O)[C@H](Cc2ccncc2)NC(=O)[C@H](Cc2ccc(-c3ccc(C(=O)O)cc3)cc2)NC(=O)[C@H]2C[C@@H](Cc3ccncc3)CN2C(=O)CNC(=O)[C@H](CCN)NC(=O)[C@H](CCC(N)=O)NC(=O)[C@H](Cc2cncnc2)NC(=O)[C@@](C)(CC(=O)O)NC(=O)[C@H](Cc2c[nH]c3ccccc23)NC(=O)[C@H](CO)NC(=O)C(C)(C)NC1=O [Example 159] (cyclo([Bip(4'-COOH)][4Pal][Phe(4-COOH)]G[cisHyp][Trp(βS-Me,4-F)][Aib]SW[d(αMeD)][Ala(pyrimidin-5-yl)]Q[Dab]G[dPro(4R-(4-pyridylmethyl))])) |
| 0.023 nM | C[C@@H](c1c[nH]c2cccc(F)c12)[C@@H]1NC(=O)[C@@H]2C[C@H](O)CN2C(=O)CNC(=O)[C@H](Cc2ccc(C(=O)O)cc2)NC(=O)[C@H](CC23CC(C2)C3)NC(=O)[C@H](Cc2ccc(-c3ccc(C(=O)O)cc3)cc2)NC(=O)[C@H]2C[C@@H](Cc3ccncc3)CN2C(=O)CNC(=O)[C@H](CCN)NC(=O)[C@H](CCC(N)=O)NC(=O)[C@H](Cc2cncnc2)NC(=O)[C@@](C)(CC(=O)O)NC(=O)[C@H](Cc2c[nH]c3ccccc23)NC(=O)[C@H](CO)NC(=O)C(C)(C)NC1=O [Example 160] (cyclo([Bip(4'-COOH)][Ala(1-bicyclo(1.1.1)pentyl)][Phe(4-COOH)]G[cisHyp][Trp(βS-Me,4-F)][Aib]SW[d(αMeD)][Ala(pyrimidin-5-yl)]Q[Dab]G[dPro(4R-(4-pyridylmethyl))])) |
